# Measured values from patent US6087493A, “Porphyrin compounds as telomerase inhibitors” (Regents of the University of Texas System, priority 1998, dated 2000).
# Legend:
# Type in all cases: cell-based, human
# MCF7 cells = assay: Cell cycle analysis in MCF7 cells
# Experimental: The effects of TMPyP4 on the cell cycle were assessed by flow cytometry by measuring the percentage of cells in G1/G0, S, and G2/M phases, with and without treatment with the porphyrin. Cells were stained with 50 μg/ml propidium iodide in a hypotonic sodium citrate solution with 0.3% NP-40 and 1.0 mg/ml RNase-A at 1.0×10^6 cells/ml, vortexed and stained for 30 min at room temperature in the dark. Prior to flow cytometric measurements, samples were filtered through a 37 μm nylon mesh into 12×75 mm tubes and stored at 4° C. until analysis within 24 h. All samples were analyzed with an EPICS ELITE flow cytometer (Coulter Cytometry, Miami, Fla.) using a 15 m Watt argon ion laser operated at 6 Amps of power at 488 nm for fluorochrome excitation. Photomultiplier tube voltage was adjusted for each control sample to position the G0G1 to channel 240 on a 1024 channel presentation. The propidium iodide emission was collected through a 675 nm long pass filter. Histograms were analyzed for cell cycle compartments using MultiCycle-PLUS Version 3.0 (Phoenix Flow Systems, San Diego, Calif.). Histograms all had 50K events collected to maximize the statistical validity of the compartmental analysis.
# The inventors examined whether the treatment of MCF7 cells with TMPyP4 affected the cell cycle.
# Daudi = assay: cells; settings: Homo sapiens; Daudi (lymphoma), 4-7 days; read-out: IC 50 cytotoxicity
# Experimental: (§1) The cells were cultured in the presence of the porphyrins incubator for 4-7 days and then treated with 3-(4,5-dimethylthiazol-2-yl)-2,5-diphenyl-tetrazolium bromide (MTT). Formazan concentration was quantitated by absorbance at 570 nm.
# LNCap = assay: Cytotoxicity (MTT) LNCap; settings: Homo sapiens; LNCap (prostate), 4-7 days; read-out: IC 50 cytotoxicity
# Experimental: as §1
structure (smiles),measurement,setting,value
"C[n+]1ccc(-c2c3nc(c(-c4cc[n+](C)cc4)c4ccc([nH]4)c(-c4cc[n+](C)cc4)c4nc(c(-c5cc[n+](C)cc5)c5ccc2[nH]5)C=C4)C=C3)cc1 [TMPyP4, 5,10,15,20-tetra-(N-methyl-4-pyridyl)porphine]",G2/M phase fraction,"MCF7 cells; 100 μM, days 4, 8 and 15",time-dependent gradual increase in the G2/M phase
same,MCF7 cells arrested in G2/M,MCF7 cells; long-term exposure,not more than 32%
same,IC50,Daudi,3.1 µM
same,IC50,LNCap,22.8 µM
